pIC50: −log10 of the molar value.
Tests used:
AsPC-1 cells = target: T1, AsPC-1 cells (Homo sapiens, UniProt P01116, G12D); assay: Cellular phospho-ERK assay, AsPC-1 cells (KRAS G12D); type: cell-based; conditions: 2 hours, read-out: AsPC1 pERK IC50
T1 construct: p-ERK/total ERK AlphaSureFire read-out
Outline: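 Compound was titrated 10-point in 3-fold steps (top 30 μM) on KRAS G12D homozygous pancreatic lines PANC08.13 and AsPC-1 for 2 h at 37 °C. The p-ERK/total ERK ratio was measured by multiplex AlphaLISA SureFire and fitted with a 4-parameter logistic model to give IC50.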

NRAS = NRAS (Homo sapiens, UniProt P01111); assay: SOS-catalyzed nucleotide exchange assay, NRAS (Procedure A); type: biochemical; conditions: GNE
Text: (§1) Procedure for SOS-Catalyzed Nucleotide Exchange Assay for KRAS-WT, G12C/D/V, G13D, HRAS, and NRAS (Procedure A)
(§2) Recombinant KRAS-G12C protein used in this assay has an additional triple mutation (C51S/C80L/C118S). Whereas KRAS-WT, G12D/V, G13D, HRAS and NRAS are in context of their WT protein sequence background. Specifically, the SOS-catalyzed nucleotide exchange assay utilizes a preformed TR-FRET complex containing a specific biotinylated RAS protein (KRAS-WT, G12C/V/D, G13D, HRAS, NRAS; described above) with Bodipy-GDP, and Terbium-streptavidin. Compounds are preincubated with this complex for 60 minutes. Subsequently, recombinant human SOS protein and unlabeled GTP are added to initiate the exchange reaction. Small molecule inhibitors stabilize the Bodipy-GDP complex whereas the untreated protein rapidly exchanges Bodipy-GDP for unlabeled GTP resulting in reduced TR-FRET signal.
(§3) To assemble the preformed TR-FRET complexes, each biotinylated RAS protein is diluted to 2 μM in an EDTA Buffer (20 mM HEPES pH 7.5, 50 mM sodium chloride, 10 mM EDTA, and 0.01% Tween) and incubated at room temperature for one hour. This mixture is then further diluted to 90 nM in an Assay Buffer (20 mM HEPES pH 7.5, 150 mM sodium chloride, 10 mM magnesium chloride, and 0.005% Tween) containing 15 nM of Terbium-Streptavidin (Invitrogen, catalog #PV3577) and 900 nM of Bodipy-GDP (Invitrogen, catalog #G22360) and incubated at room temperature for six hours. It should be noted that this preformed TR-FRET complex for each of the RAS protein were made ahead of time, aliquoted and stored at −80° C. until the day of the experiment.
(§4) Each test compound (10 mM stock in DMSO) is diluted in DMSO to make a final-10-point, 3-fold dilution and is acoustically dispensed into a 384-well assay plate (Corning, catalog #3820) using an Echo 550 (Labcyte). Each well of the assay plate receives 3 μL of a specific 3×RAS preformed TR-FRET complex and 3 μL of Assay Buffer and is incubated at room temperature for 60 minutes (preincubation time). Each well then receives 3 μL of 3× recombinant human SOS protein and GTP (Sigma, G8877) in Assay Buffer and is incubated at room temperature for 30 minutes (G13D), 60 minutes (KRAS WT/G12C/D, H/NRAS) or 90 minutes for G12V. The final reaction in each well of 9 μL consists of 3 mM GTP, specific Ras and SOS proteins in the following concentrations: KRAS-G12C/SOS=3 nM/40 nM, KRAS-WT and G12D/SOS=1 nM/40 nM, KRAS-G12V/SOS=1.25 nM/160 nM, KRAS-G13D/SOS=1.25 nM/0 nM, HRAS and NRAS=1.25 nM/40 nM.
(§5) The time-resolved fluorescence resonance energy transfer (TR-FRET) signal is measured on an Envision (PerkinElmer) plate reader: Excitation filter=340 nm; emission1=495 nm; emission2=520 nm; dichroic mirror=D400/D505; delay time=[…]. The signal of each well is determined as the ratio of the emission at 520 nm to that at 495 nm. Percent effect of each well is determined after normalization to control wells containing DMSO (no effect) or a saturating concentration of inhibitor (max effect). The apparent effect as a function of compound concentration is fit to a four-parameter logistic equation.
(§6) For Example No. 14, nucleotide exchange assays for KRAS G12D, WT, G12C, and G12V were performed according to Procedure B. All the other compounds were tested according to Procedure A.

KRAS G13D = KRAS G13D (Homo sapiens, UniProt P01116, G13D); assay: SOS-catalyzed nucleotide exchange assay, KRAS G13D (Procedure A); type: biochemical; conditions: GNE
Text: as §1, §2, §3, §4, §5, §6

KRAS G12D = KRAS G12D (Homo sapiens, UniProt P01116, G12D); assay: SOS-catalyzed nucleotide exchange assay, KRAS G12D (Procedure A); type: biochemical; conditions: guanine nucleotide exchange (GNE)
Outline: (§7)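 Compounds in 10-point 3-fold series sat 60 min with biotin-KRAS/Bodipy-GDP/Tb-streptavidin complex, then human SOS and 3 mM GTP were added. G13D: 1.25 nM KRAS, no SOS, 30 min. WT and G12D: 1 nM with 40 nM SOS, 60 min. G12C (C51S/C80L/C118S): 3 nM/40 nM, 60 min. Curves fitted from normalised TR-FRET 520/495 ratio.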

KRAS G12V = KRAS G12V (Homo sapiens, UniProt P01116, G12V); assay: SOS-catalyzed nucleotide exchange assay, KRAS G12V (Procedure A); type: biochemical; conditions: GNE
Outline: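 Biotinylated KRAS G12V was loaded with Bodipy-GDP alongside Terbium-streptavidin to form a TR-FRET complex, which was preincubated with compounds for 60 minutes in 384-well plates. Human SOS protein and unlabeled GTP were then added for 90 minutes, giving final concentrations of 1.25 nM KRAS-G12V, 160 nM SOS and 3 mM GTP. The 520/495 nm emission ratio was read on an Envision.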

KRAS WT = KRAS WT (Homo sapiens, UniProt P01116); assay: SOS-catalyzed nucleotide exchange assay, KRAS WT (Procedure A); type: biochemical; conditions: GNE
Outline: as §7

KRAS G12C = KRAS G12C (Homo sapiens, UniProt P01116, C118S/C51S/C80L/G12C); assay: SOS-catalyzed nucleotide exchange assay, KRAS G12C (Procedure A); type: biochemical; conditions: GNE
Text: as §1, §2, §3, §4, §5, §6

HRAS = HRAS (Homo sapiens, UniProt P01112); assay: SOS-catalyzed nucleotide exchange assay, HRAS (Procedure A); type: biochemical; conditions: GNE
Text: as §1, §2, §3, §4, §5, §6

Sequence of KRAS G12C (P01116 with tags, fused parts or gaps isoform P01116-2 G12C/C51S/C80L/C118S): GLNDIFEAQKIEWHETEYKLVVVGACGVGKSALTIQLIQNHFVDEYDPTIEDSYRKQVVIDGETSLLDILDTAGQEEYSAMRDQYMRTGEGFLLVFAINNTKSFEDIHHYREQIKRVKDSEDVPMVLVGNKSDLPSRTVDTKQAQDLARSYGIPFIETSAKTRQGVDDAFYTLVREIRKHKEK
Sequence of KRAS G12V (P01116 with tags, fused parts or gaps isoform P01116-2 G12V): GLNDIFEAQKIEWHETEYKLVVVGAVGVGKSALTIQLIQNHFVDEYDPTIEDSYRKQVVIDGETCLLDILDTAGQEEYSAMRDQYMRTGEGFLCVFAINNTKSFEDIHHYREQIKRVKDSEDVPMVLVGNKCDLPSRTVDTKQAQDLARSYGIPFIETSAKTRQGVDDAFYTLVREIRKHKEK
Sequence of NRAS (P01111 with tags, fused parts or gaps): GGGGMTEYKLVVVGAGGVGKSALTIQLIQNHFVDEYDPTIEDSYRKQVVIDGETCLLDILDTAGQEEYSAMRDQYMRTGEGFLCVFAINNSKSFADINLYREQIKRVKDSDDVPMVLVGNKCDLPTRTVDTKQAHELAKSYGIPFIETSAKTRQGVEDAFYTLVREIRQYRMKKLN
T1 sequence (P01116 1-188 isoform P01116-2 G12D): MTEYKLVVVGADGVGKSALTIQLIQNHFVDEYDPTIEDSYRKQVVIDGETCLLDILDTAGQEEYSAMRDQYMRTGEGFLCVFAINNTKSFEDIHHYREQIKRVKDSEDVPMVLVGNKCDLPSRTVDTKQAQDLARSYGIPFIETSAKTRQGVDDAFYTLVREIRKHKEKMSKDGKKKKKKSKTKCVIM
Sequence of KRAS G12D (P01116 with tags, fused parts or gaps isoform P01116-2 G12D): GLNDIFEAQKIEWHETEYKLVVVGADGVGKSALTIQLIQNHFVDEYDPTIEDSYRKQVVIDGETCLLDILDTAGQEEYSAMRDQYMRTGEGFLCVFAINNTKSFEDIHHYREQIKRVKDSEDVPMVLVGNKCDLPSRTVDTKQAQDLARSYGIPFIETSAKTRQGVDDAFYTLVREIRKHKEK
Sequence of HRAS (P01112 with tags, fused parts or gaps): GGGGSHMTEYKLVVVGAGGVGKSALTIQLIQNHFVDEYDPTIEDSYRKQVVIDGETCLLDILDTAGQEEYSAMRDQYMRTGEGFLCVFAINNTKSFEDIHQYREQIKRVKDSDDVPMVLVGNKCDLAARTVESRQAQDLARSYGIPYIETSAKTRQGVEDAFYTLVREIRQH
Sequence of KRAS WT (P01116 with tags, fused parts or gaps isoform P01116-2): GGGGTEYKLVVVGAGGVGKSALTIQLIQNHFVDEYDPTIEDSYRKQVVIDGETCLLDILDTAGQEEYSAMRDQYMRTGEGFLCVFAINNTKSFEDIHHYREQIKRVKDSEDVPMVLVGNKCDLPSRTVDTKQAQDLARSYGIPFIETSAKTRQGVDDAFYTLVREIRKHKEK
Sequence of KRAS G13D (P01116 with tags, fused parts or gaps isoform P01116-2 G13D): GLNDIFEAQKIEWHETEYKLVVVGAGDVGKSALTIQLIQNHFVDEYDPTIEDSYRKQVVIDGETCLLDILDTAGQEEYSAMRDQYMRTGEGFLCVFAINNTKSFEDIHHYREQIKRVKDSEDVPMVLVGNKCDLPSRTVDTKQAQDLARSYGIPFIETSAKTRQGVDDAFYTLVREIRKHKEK

| pIC50 (AsPC-1 cells) | pIC50 (NRAS) | pIC50 (KRAS G13D) | pIC50 (KRAS G12D) | pIC50 (KRAS G12V) | pIC50 (KRAS WT) | pIC50 (KRAS G12C) | pIC50 (HRAS) | Compound |
| --- | --- | --- | --- | --- | --- | --- | --- | --- |
| 6.21 | < 4.96 | 6.31 | 8.10 | 5.30 | 5.55 | 6.34 | < 4.96 | CN(C)C[C@@]1(COc2nc(N3C[C@H]4CC[C@@H](C3)N4)c3c(n2)sc2c(-c4c(C5CC5)c(Cl)cc5[nH]ncc45)nccc23)CC1(F)F [Ex-21, 1-((1R)-1-(((4-((1R,5S)-3,8-diazabicy-clo[3.2.1]octan-3-yl)-8-(6-chloro-5-cyclopropyl-1H-indazol-4-yl)pyrido [4′,3′:4,5]thieno [2,3-d]pyrimidin-2-yl)oxy)methyl)-2,2-difluoro-cyclopropyl)-N,N-dimethyl-methanamine] |
| 5.09 | < 4.96 | < 4.96 | 5.71 | < 4.95 | < 4.95 | < 4.96 | < 4.96 | CC12CC(COc3nc(N4C[C@H]5CC[C@@H](C4)N5)c4c(n3)sc3c(-c5c(C6CC6)c(Cl)cc6[nH]ncc56)nccc34)(CO1)C2 [Ex-23, 4-((1R,5S)-3,8-diazabicy-clo[3.2.1]octan-3-yl)-8-(6-chloro-5-cyclopropyl-1H-indazol-4-yl)-2-(((1R,4r)-1-methyl-2-oxabicy-clo[2.1.1]hex-an-4-yl)methoxy)pyri-do[4′,3′:4,5]thi-eno[2,3-d]pyrimi-dine] |
| 4.73 | < 4.96 | < 4.96 | 5.28 | < 4.95 | < 4.95 | < 4.96 | < 4.96 | OC1C2CCCC1(COc1nc(N3C[C@H]4CC[C@@H](C3)N4)c3c(n1)sc1c(-c4c(C5CC5)c(Cl)cc5[nH]ncc45)nccc13)CC2 (stereo partly drawn) [Ex-24, 1-(((4-((1R,5S)-3,8-diazabicy-clo[3.2.1]octan-3-yl)-8-(6-chloro-5-cyclopropyl-1H-indazol-4-yl)pyri-do[4′,3′:4,5]thi-eno[2,3-d]pyrimidin-2-yl)oxy)methyl)bi-cyclo[3.2.1]oc-tan-8-ol] |
| < 4.52 | < 4.96 | < 4.96 | 5.99 | < 4.95 | < 4.95 | < 4.96 | < 4.96 | Cc1cc2[nH]ncc2c(-c2nccc3c2sc2nc(OC[C@]4(C#N)C[C@H]4S(C)(=O)=O)nc(N4C[C@H]5CC[C@@H](C4)N5)c23)c1C(F)(F)F [Ex-32, (1R,2R)-1-(((4-((1R,5S)-3,8-diazabicyclo[3.2.1]octan-3-yl)-8-(6-methyl-5-(trifluoromethyl)-1H-indazol-4-yl)pyrido[4′,3′:4,5]thieno[2,3-d]pyrimidin-2-yl)oxy)methyl)-2-(methylsulfonyl)cyclopropane-1-carbonitrile] |

More lines, now with the values behind:

| Compound | pIC50 (AsPC-1 cells) | pIC50 (NRAS) | pIC50 (KRAS G13D) | pIC50 (KRAS G12D) | pIC50 (KRAS G12V) | pIC50 (KRAS WT) | pIC50 (KRAS G12C) | pIC50 (HRAS) |
| --- | --- | --- | --- | --- | --- | --- | --- | --- |
| F[C@H]1CN2CCC[C@@]2(COc2nc(N3C[C@H]4CC[C@@H](C3)N4)c3c(n2)sc2c(-c4c(C5CC5)c(Cl)cc5[nH]ncc45)nccc23)C1 [Ex-20, 4-((1R,5S)-3,8-diazabicyclo[3.2.1]octan-3-yl)-8-(6-chloro-5-cyclopropyl-1H-indazol-4-yl)-2-(((2R,7aS)-2-fluorotetrahydro-1H-pyrrolizin-7a(5H)-yl)methoxy)pyrido[4′,3′:4,5]thieno[2,3-d]pyrimidine] | 6.53 | < 4.96 | 6.54 | 8.09 | 5.91 | 5.94 | 6.38 | < 4.96 |
| Clc1cc2[nH]ncc2c(-c2nccc3c2sc2nc(OCC45CCOC(CO4)C5)nc(N4C[C@H]5CC[C@@H](C4)N5)c23)c1C1CC1 [Ex-22, 2-((2,6-dioxabicy-clo[3.2.1]octan-5-yl)methoxy)-4-((1R,5S)-3,8-diazabicy-clo[3.2.1]octan-3-yl)-8-(6-chloro-5-cyclopropyl-1H-indazol-4-yl)pyrido [4′,3′:4,5]thi-eno[2,3-d]pyrimidine] | 5.00 | < 4.96 | 5.04 | 5.56 | < 4.95 | < 4.95 | < 4.96 | < 4.96 |
| Cc1cc2[nH]ncc2c(-c2nccc3c2sc2nc(OCC4(S(C)(=O)=O)CC4)nc(N4C[C@H]5CC[C@@H](C4)N5)c23)c1C(F)(F)F [Ex-33, 4-((1R,5S)-3,8-diazabicyclo[3.2.1]octan-3-yl)-8-(6-methyl-5-(trifluoromethyl)-1H-indazol-4-yl)-2-((1-(methylsulfonyl)cyclopropyl)meth-oxy)pyrido[4′,3′:4,5]thieno[2,3-d]pyrimidine] | 4.69 | < 4.96 | < 4.96 | 5.10 | < 4.95 | < 4.95 | < 4.96 | < 4.96 |
| Cc1cc2[nH]ncc2c(-c2nccc3c2sc2nc(OCC4(C#N)CCCO4)nc(N4C[C@H]5CC[C@@H](C4)N5)c23)c1C(F)(F)F (stereo partly drawn) [Ex-34, 2-(((4-((1R,5S)-3,8-diazabicyclo[3.2.1]octan-3-yl)-8-(6-methyl-5-(trifluoromethyl)-1H-indazol-4-yl)pyrido[4′,3′:4,5]thieno[2,3-d]pyrimidin-2-yl)oxy)methyl)tetrahydrofuran-2-carbonitrile] | < 4.52 | < 4.96 | < 4.96 | 5.17 | < 4.95 | < 4.95 | < 4.96 | < 4.96 |
| Cc1cc2[nH]ncc2c(-c2nccc3c2sc2nc(OC[C@H]4C[C@H](S(C)(=N)=O)C4)nc(N4C[C@H]5CC[C@@H](C4)N5)c23)c1C(F)(F)F (stereo partly drawn) [Ex-35, (1S)-((1R,3S)-3-(((4-((1R,5S)-3,8-diazabicyclo[3.2.1]octan-3-yl)-8-(6-methyl-5-(trifluoromethyl)-1H-indazol-4-yl)pyrido[4′,3′:4,5]thieno[2,3-d]pyrimidin-2-yl)oxy)methyl)cyclobutyl)(imino) (methyl)-λ^6-sulfanone] | < 4.52 | < 4.96 | < 4.96 | 5.85 | < 4.95 | < 4.95 | < 4.96 | < 4.96 |

Reference: US20260347372A1, “SMALL MOLECULE INHIBITORS OF KRAS G12D MUTANT” (MERCK SHARP & DOHME LLC, priority 2023, published 2026)
